The text below walks through data of patent US20180185414A1, “CALCIUM SALT COMPOSITION AND FILAGGRIN PRODUCTION PROMOTER USING THE SAME” (NISSAN CHEMICAL INDUSTRIES, LTD., priority 2015, published 2018).

Assay [1] has as its system filaggrin production in human skin keratinocytes (NHEK). In words: Filaggrin production test (A): fluorescent immunostaining with Anti-FLG. In kind it is cell-based. The settings on record: for Increase rate of brightness: overnight, relative to Lcell of Comparative Test Example 2 (no calcium salt added = 100); for Brightness/Cell number (Lcell): incubated overnight. The method, then: Various calcium salts were dispersed in water so that the concentration calculated in terms of calcium ion would be 0.89 M, this obtained dispersed solution was then sterilized in an autoclave (at 120° C. for 20 minutes), and thereby various calcium salt stock dispersed solutions were prepared.
Then, according to Table 11, each calcium salt stock aqueous dispersed solution was added to a medium (manufactured by KURABO […] LTD., HuMedia-KG2) while pipetting so that that a predetermined supplemented concentration calculated in terms of calcium ion would be obtained, and thereby a calcium salt supplemented medium was prepared.
On a culture plate of 24-wells to which the same medium as used in the preparation of the above-mentioned calcium salt supplemented medium was added, human skin keratinocytes (manufactured by KURABO […] LTD., NHEK) were inoculated so that the cell density would be 3,800 cells/cm^2, and this was cultured for 3 days (37° C., 5% CO2). Then, this medium was exchanged with the calcium salt supplemented medium prepared as mentioned above and incubated for overnight (37° C., 5% CO2).
Whether filaggrin is produced by a calcium salt was examined using fluorescent immunostaining methods by Anti-Filaggrin/FLG, Rabbit-Poly, Alexa Fluor 488 (manufactured by BIS, hereinafter referred to as “Anti-FLG” as well). Moreover, for comparing the staining, DAPI (4′,6-diamidino-2-phenylindole dihydrochloride, manufactured by Wako Pure Chemical Industries, Ltd) was used to stain the nucleus.
That is to say that the above-mentioned incubated cells for overnight were washed with PBS and fixed with 4% paraformaldehyde solution (manufactured by Wako Pure Chemical Industries, Ltd). The fixed cells were permeabilized with 0.1% Triton-X 100, incubated for overnight with Anti-FLG PBS solution (×50) at 4° C., and then stained with a PBS solution of 100 nM DAPI. Note that the cells were washed with PBS after every operation.
For calculating the relative production amount of filaggrin, a fluorescent microscopic image of the above-mentioned stained cells was taken. The brightness of the image was quantified using Photoshop CS3, and this was normalized by dividing the obtained numerical value with cell numbers (Brightness/Cell number; Lcell). Moreover, the increase rate of brightness by adding various calcium salts in comparison with Lcell of the Comparative Test Example 2 in which calcium salt aqueous dispersed solution has not been added to the medium was calculated.

The test system is the same in assay [2]. In words: Filaggrin production test (B): calcium salt composition, fluorescent immunostaining. It is filed as cell-based. Conditions: for Increase rate of brightness: unsupplemented = 100. On the procedure: Then, according to Table 12, the calcium salt stock aqueous dispersed solution was added to the same medium as used in filaggrin production test (A) while pipetting so that a predetermined supplemented concentration calculated in terms of calcium ion would be obtained, and thereby a calcium salt supplemented medium was prepared.
On a culture plate of 24-wells to which the same medium as used in filaggrin production test (A) was added, human skin keratinocytes (manufactured by KURABO […] LTD., NHEK) were inoculated so that the cell density would be 3,800 cells/cm^2, and this was cultured for 3 days (37° C., 5% CO2). Then, this medium was exchanged with the calcium salt supplemented medium prepared as mentioned above and incubated for a day or two (37° C., 5% CO2). These incubated cells were stained as in the above-mentioned filaggrin production test (A), and Lcell and the increase rate of brightness were calculated.

[3] abbreviates: supplemented concentration calculated in terms of calcium ion 1.78 mM.
The mark [4] stands for this setting: calcium ion 0.09 mM, cells incubated for 1 day.
Setting [5] is: calcium ion 0.09 mM, cells incubated for 2 days.
[6] abbreviates: calcium ion 0.89 mM, cells incubated for 1 day.
[7] abbreviates: calcium ion 0.89 mM, cells incubated for 2 days.
Setting [8] is: supplemented concentration calculated in terms of calcium ion 0.89 mM.

For the compound `[Ca+2].[Cl-].[Cl-]` [Calcium chloride], the “Increase rate of brightness” value in assay [1] (calcium ion 1.78 mM) is listed as 130%; in assay [2] (setting [4]), 83%; in assay [2] (setting [5]), 89%; in assay [2] (setting [6]) it was 96%; in assay [2] (setting [7]) it was 110%. The “Brightness/Cell number (Lcell)” value in assay [1] (setting [3]) is recorded as 0.12; in assay [2] (setting [4]) it was 0.20; in assay [2] (setting [5]), 0.16; in assay [2] (setting [6]) it was 0.23; in assay [2] (setting [7]), 0.20.
For the compound `O=P([O-])(O)O.O=P([O-])(O)O.[Ca+2]` [Calcium dihydrogen phosphate], the “Increase rate of brightness” value in assay [1] (calcium ion 0.89 mM) came out at 180%. Besides, the “Brightness/Cell number (Lcell)” value in assay [1] (setting [8]) is 0.17.
As to `O=P([O-])([O-])OP(=O)([O-])[O-].[Ca+2].[Ca+2]` [Calcium pyrophosphate], the “Increase rate of brightness” value is reported as 290% in assay [1] (calcium ion 0.89 mM) and 260% in assay [1] (calcium ion 1.78 mM). In addition, in assay [1] (human skin keratinocytes, Table 11), the “Filaggrin production compared to calcium chloride” value is recorded as “relatively high filaggrin production as compared to that of calcium chloride”. Also, the “Brightness/Cell number (Lcell)” value in assay [1] (setting [8]) is given as 0.28; in assay [1] (setting [3]), 0.25.
With Calcium glycerophosphate, the “Increase rate of brightness” value in assay [1] (calcium ion 1.78 mM) came to 200%. Further, the “Brightness/Cell number (Lcell)” value in assay [1] (setting [3]) is reported as 0.19.
